Values after ≈ are worked out from the molar mass of the structure shown. Read-outs that look alike come from different tables or passages of the source.
Assays:
[1] = Mitotoxicity / Mitotox safety margin (therapeutic window); assay type: cell-based; conditions: for mitotoxicity: FIG. 5-7
Kinetic solubility = assay type: physicochemical
HeLa MKYP cells [2] = test: Cell death measured by DAPI staining, with 1 μM FCCP/oligomycin or no toxin (no FO); assay type: cell-based; conditions: for E105 death at 8.3 μM (no FO): 8.3 μM compound; for Max cell death at 25 μM compound, 1 uM FO (%) / Cell death at 25 μM (no FO) (%) / E104 death at 25 μM (no FO): 25 μM compound
How it was run: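 HeLa MKYP cells were treated with compounds alongside 1 μM FCCP/oligomycin or no toxin for 6 or 6.5 h. Cell death was scored by DAPI staining, with H2O2 treatment as the death control.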

HeLa MKYP cells [3] = test: Human mitophagy assay (HeLa mKeima assay, FACS); assay type: cell-based; conditions: for EC50: Homo sapiens, HeLa
How it was run: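 HeLa cells carrying the pH-sensitive mtKeima tag incubated 16 h with compound at several concentrations, then 1 uM FCCP/oligomycin for 6 h. FACS detects mitochondria in lysosomes through the Keima emission shift, quantified as percentage of cells in mitophagy.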

pS129 α-syn = test: Preformed fibril (PFF) model in primary neuron culture, pS129 α-syn; assay type: cell-based
Protocol: 4. Preformed Fibril Model
Mouse and human alpha-synuclein monomers have been sourced commercially, then pre-formed fibrils have been generated as per the detailed protocol provided by the MJFF. For in vitro experiments primary hippocampal neurons isolated from P0 pups were grown for 7 days after which PFFs at 5 ug/ml were introduced Pre-formed fibrils will be introduced via stereotactic injection into the striatum of wt (C57BL/6J, Jax #000664) and transgenic A53T mice (B6;C3-Tg(Prnp-SNCA*A53T)83Vle/J, Jax #004479). Cohorts of drug-treated (oral gavage) and untreated animals will then be allowed to age for up to 6 months, at which point they will be sacrificed and perfused. Brains will be removed and fixed, then sectioned for analysis. We anticipate that untreated A53T animals will show significant spreading of aggregated alpha-synuclein pathology and pS129 staining, as well as some possible neurodegeneration; wt animals are also expected to show pS129 synuclein staining and synuclein aggregation, albeit less than that seen in the A53T background.

[4] = Inspection of crystallization and round cells; assay type: physicochemical; set-up: key: 1=yes crystals; 0=no crystals
Protocol: 5. Inspection of Crystallization and Round Cells
Briefly, the Hela MKYP (Mito-Keima/YFP-Parkin) cells were seeded at 10K cells/well. EP/MTK compounds were added at seeding (cells were still in suspension). The cells were incubated with the EP/MTK compounds for 16 hours, then 1 μM FCCP/oligomycin was added for 6 hours. Prior to harvesting, cells were scored by eye under 20× magnification for the presence or absence of crystalline or aggregated compound, or round cells.

cleaved caspase-3 = test: Cleaved caspase-3 levels in primary neuron culture; assay type: cell-based; conditions: compared with toxins
[5] = HeLa mKeima assay, read-out: Mitophagy EC50 (HeLa mKeima assay)
[6] = mitophagy, 1 μM FCCP/oligomycin, read-out: E100 EC50
[7] = mitophagy, 1 μM FCCP/oligomycin
[8] = 25.0 μM compound, HeLa MKYP culture, 20× magnification
[9] = read-out: Mitophagy induction EC50
[10] = average ± spread, read-out: E100 EC50 (μM) (average)

| Compound | Mitotox safety margin (Therapeutic window) [1] | solubility kinetic (Kinetic solubility) | E105 death at 8.3 μM (no FO) (HeLa MKYP cells [2]) | Max cell death at 25 μM compound, 1 uM FO (%) (HeLa MKYP cells [2]) | Cell death at 25 μM (no FO) (%) (HeLa MKYP cells [2]) | E104 death at 25 μM (no FO) (HeLa MKYP cells [2]) | E103 max death with 1 μM FO (HeLa MKYP cells [2]) | E102 max mitophagy, fold over DMSO (HeLa MKYP cells [3]; 1 μM FCCP/oligomycin) | EC50 (HeLa MKYP cells [3]; [5]) | EC50 (HeLa MKYP cells [3]; [6]) | E101 lowest effective dose (HeLa MKYP cells [3]; [7]) | mitotoxicity [1] | Mito-Safety Index (highest safe dose/EC50) [1] | Highest safe dose (μM) (mitotox or cytotox) [1] | Highest safe dose (cytotoxicity; no FO; safe means DAPI+ <20%) (HeLa MKYP cells [2]) | Max % death with 1 μM FO (HeLa MKYP cells [2]) | EC50 (HeLa MKYP cells [3]; [9]) | EC50 (HeLa MKYP cells [3]; [10]) | further results |
| --- | --- | --- | --- | --- | --- | --- | --- | --- | --- | --- | --- | --- | --- | --- | --- | --- | --- | --- | --- |
| FC(F)(F)c1cc2c(N[C@H]3c4ccccc4CC[C@@H]3N3CCOCC3)ncnc2[nH]1 (single isomer, unassigned) [EP-0038098] | ++++ (++++ = 30<) | 14.1 µM (≈ 5.89 µg/mL) | 2.59 | 24% | 5.29% | 5.29 | 24.02 | 9.78 fold over DMSO | 0.22 µM | 0.22 µM | 0.10 µM |  |  |  |  |  |  |  | toxicity (HeLa MKYP cells [2]; text statement referring to Tables 2A and 2B, FIG. 1A-F): less than 10%; EC50 (HeLa MKYP cells [3]; text statement referring to Tables 2A and 2B, FIG. 1A-F, read-out: EC50): < 0.3 µM; pathological α-synuclein levels in primary neurons (pS129 α-syn; FIG. 8A-C): reduce pathological α-synuclein levels |
| FC(F)(F)c1cc2c(N[C@H]3c4ccccc4CC[C@@H]3N3CC4(CCOCC4)C3)ncnc2[nH]1 (single isomer, unassigned) [EP-0038463] | + (+ = <10) | 153 µM (≈ 70 µg/mL) | 4.21 | 87.805% | 59.8% | 59.77 | 87.81 | 3.95 fold over DMSO | 2.59 µM | 2.59 µM | 2.78 µM | low mitotoxicity | 3.20 | 8.3 µM | 8.3 µM | 87.8% | 2.59 µM |  | visual inspection of crystallization ([4]; 0.1 μM compound): 0; visual inspection of crystallization ([4]; 0.3 μM compound): 0; visual inspection of crystallization ([4]; 0.9 μM compound): 0; visual inspection of crystallization ([4]; 2.8 μM compound): 0; visual inspection of crystallization ([4]; 8.3 μM compound): 0; visual inspection of crystallization [4, 8]: 0 |
| Fc1ccc2c(c1)CC[C@H](N1CCOCC1)[C@H]2Nc1ncnc2[nH]c(C(F)(F)F)cc12 (single isomer, unassigned) [EP-0038503] | ++ (++ = 10 < x < 20) | 1.56 µM (≈ 0.679 µg/mL) |  | 8.15% | 2.53% |  | 4.37 | 5.11 fold over DMSO | 0.38 µM | 0.58 µM | 8.33 µM | low mitotoxicity | 17.40 | 8.3 µM | 25.0 µM | 6.3% | 0.48 µM | 0.48 ± 0.1 µM |  |
| Fc1ccc2c(c1)CC[C@@H](N1CCOCC1)[C@@H]2Nc1ncnc2[nH]c(C(F)(F)F)cc12 (single isomer, unassigned) [EP-0038504] | + (+ = <10) | 1.56 µM (≈ 0.679 µg/mL) | 2.93 | 4.59% | 3.1% | 3.10 | 4.59 | 4.67 fold over DMSO | 14.2 µM | 14.2 µM | 8.33 µM | low mitotoxicity | 1.76 | 25.0 µM | 25.0 µM | 4.6% | 14.2 µM |  |  |
| Fc1ccc2c(c1)CC[C@H](N1CCOCC1)[C@H]2Nc1ncnc2[nH]c(C3CC3)cc12 (single isomer, unassigned) [EP-0038521] | +++ (+++ = 20 < x < 30) | 1.56 µM (≈ 0.636 µg/mL) |  | 6.77% | 3.42% |  | 6.77 | 5.24 fold over DMSO | 0.37 µM | 0.37 µM | 2.78 µM | low mitotoxicity | 24.49 | 8.3 µM | 25.0 µM | 7.6% | 0.34 µM | 0.3 ± 0.07 µM |  |
| FC(F)(F)c1cc2c(N[C@H]3c4ccccc4CC[C@@H]3N3C[C@H]4COC[C@H]4C3)ncnc2[nH]1 (single isomer, unassigned) [EP-0038582] |  |  |  | 5.87% | 3.77% |  |  |  |  |  |  |  |  | 25.0 µM | 25.0 µM | 4.3% | > 25 µM |  | solubility kinetic (Kinetic solubility; kinetic from dmso stock): 1.56 µM (≈ 0.692 µg/mL); Mitophagy EC50 (HeLa mKeima assay) (μM) (HeLa MKYP cells [3]; HeLa mKeima assay): Minimal |
| FC(F)(F)c1cc2c(N[C@@H]3c4ccccc4CC[C@H]3N3C[C@H]4COC[C@H]4C3)ncnc2[nH]1 (single isomer, unassigned) [EP-0038583] | + (+ = <10) | 1.56 µM (≈ 0.692 µg/mL) |  | 39.5% | 6.03% |  |  |  | 0.07 µM |  |  |  | 158.93 | 9.1 µM | 25.0 µM | 18.1% | 0.06 µM |  |  |
| FC(F)(F)c1cc2c(N[C@H]3c4ccccc4CC[C@@H]3N3C[C@@H]4COC[C@H]4C3)ncnc2[nH]1 (single isomer, unassigned) [EP-0040270] |  |  |  |  |  |  |  |  |  |  |  |  |  |  |  |  |  |  | cleaved caspase-3 levels (cleaved caspase-3): increase cleaved caspase-3 levels; pS129 α-syn (250-12) in primary neuron culture (pS129 α-syn; increasing doses): reduces; pS129 α-syn (monomer) in primary neuron culture (pS129 α-syn; increasing doses): reduces; pS129 α-syn in primary neuron culture (pS129 α-syn; increasing doses): reduces |
| FC(F)(F)c1cc2c(N[C@@H]3c4ccccc4CC[C@@H]3N3CCOCC3)ncnc2[nH]1 [EP-0037820] | + (+ = <10) | 14.5 µM (≈ 6.05 µg/mL) |  | 58% | 41.4% |  |  |  | 17.4 µM |  |  |  |  |  | 16.7 µM | 60.7% | 20.3 µM |  |  |
| FC(F)(F)c1cc2c(N[C@H]3c4ccccc4CC[C@@H]3N3C[C@H]4COC[C@H]4C3)ncnc2[nH]1 [EP-0038461] | +++ (+++ = 20 < x < 30) | 1.56 µM (≈ 0.692 µg/mL) |  | 7.97% | 4.31% |  | 7.97 | 5.44 fold over DMSO | 0.11 µM | 0.11 µM | 0.93 µM | low mitotoxicity | 27.53 | 2.8 µM | 25.0 µM | 9.7% | 0.1 µM | 0.1 ± 0.01 µM | visual inspection of crystallization ([4]; 0.1 μM compound): 0; visual inspection of crystallization ([4]; 0.3 μM compound): 0; visual inspection of crystallization ([4]; 0.9 μM compound): 0; visual inspection of crystallization ([4]; 2.8 μM compound): 0; visual inspection of crystallization ([4]; 8.3 μM compound): 0; visual inspection of crystallization [4, 8]: 1 |
